Patent publication US9834521B2, “Choline kinase inhibitors” (ARIAD Pharmaceuticals, Inc., priority 2013, dated 2017)
Where two headings read alike, the source gives them in different places.

What was measured:
[1] = biological target: T1, truncated form of human Choline kinase α1 that includes residues 75-457 (Homo sapiens, UniProt P35790); assay: Kinase Assay, coupled (ATP regeneration) LDH/PK assay, NADH absorbance; format: biochemical
T1 construct: made in house
Protocol: Absorbance of NADH (340 nm) was measured over 30 min using a SpectraMax M5 (Molecular Devices). Initial reaction velocity (ΔA340/Δt) was calculated and plotted as a function of inhibitor concentration in a 2-fold dilution series. IC50 values were obtained by fitting the relative velocities to a dose-response model.

ChoKα protein = biological target: T2, ChoKα protein (Homo sapiens, UniProt P35790); assay: Binding affinity by surface plasmon resonance (SensiQ Pioneer, FastStep)
T2 construct: made in house
Protocol: KD may be measured using surface plasmon resonance (BIAcore®) technology, see, e.g., Panayotou et al, Mol. Cell. […] ChoKα protein was immobilized by standard amine coupling methods on a COOH5 sensor chip installed in a SensiQ Pioneer system. Sensograms were measured using the FastStep™ screen method with an upper concentration of 500 nM. Kinetics and affinity were obtained from fits using a 1:1 binding model.

[2] = Examples not designated with an asterisk, footnote prints version 1 of the Kinase Assay, read-out: IC50
[3] = SPR, 1:1 binding model, upper concentration 500 nM, read-out: Kd
[4] = Examples designated with an asterisk (*): version 1 of the Kinase Assay, 200 nM enzyme, read-out: IC50

T1 sequence (P35790 75-457): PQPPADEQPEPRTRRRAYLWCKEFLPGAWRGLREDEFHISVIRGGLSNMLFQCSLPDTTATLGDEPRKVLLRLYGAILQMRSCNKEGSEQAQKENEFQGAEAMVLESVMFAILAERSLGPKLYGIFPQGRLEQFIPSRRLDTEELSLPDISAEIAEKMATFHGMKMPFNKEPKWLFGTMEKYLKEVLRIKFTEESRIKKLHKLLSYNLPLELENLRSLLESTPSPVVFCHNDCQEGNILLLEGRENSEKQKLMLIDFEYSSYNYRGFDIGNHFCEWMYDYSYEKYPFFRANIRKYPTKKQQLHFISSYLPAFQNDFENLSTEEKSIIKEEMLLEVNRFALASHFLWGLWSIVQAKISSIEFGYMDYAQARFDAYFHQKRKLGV
T2 sequence (P35790 75-457): as above

SMILES | IC50 [1, 2] [nM] | Kd (ChoKα protein; [3]) [nM] | IC50 [1, 4] [nM] | IC50 [1] [nM] | Kd (ChoKα protein) [nM]
CN1CCCN(Cc2ccc(-c3ccc(C(=O)N4CCC(CO)C4)cc3)c(C#N)c2)CC1 (centres unmarked) [Example 22, 4′-(3-(hydroxymethyl)pyrrolidine-1-carbonyl)-4-((4-methyl-1,4-diazepan-1-yl)methyl)-[1,1′-biphenyl]-2-carbonitrile] | < 200 | < 200 | – | – | –
CN1CCCN(Cc2ccc(-c3ccc(S(C)(=O)=O)cc3)c(C#N)c2)CC1 [Example 94, 4-((4-methyl-1,4-diazepan-1-yl)methyl)-4′-(methylsulfonyl)-[1,1′-biphenyl]-2-carbonitrile] | < 200 | < 200 | – | – | –
COc1ccc(-c2cc(C(=O)N3CCCN(C)CC3)ccc2-c2ccc(CN3CCCN(C)CC3)cc2C#N)cc1OC [Example 81, 3″,4″-dimethoxy-4-((4-methyl-1,4-diazepan-1-yl)methyl)-4′-(4-methyl-1,4-diazepane-1-carbonyl)-[1,1′1:2′,1″-terphenyl]-2-carbonitrile] | < 100 | < 50 | – | – | –
CNS(=O)(=O)c1ccc(-c2ccc(CN3CCCN(C)CC3)cc2C#N)c(C)c1 [Example 97, 2′-cyano-N,2-dimethyl-4′-((4-methyl-1,4-diazepan-1-yl)methyl)-[1,1′-biphenyl]-4-sulfonamide] | < 200 | < 200 | – | – | –
CN1CCCN(Cc2ccc(CNc3ccc(N4CCN(C)CC4)cc3)cc2)CC1 [Example 153, N-(4-((4-methyl-1,4-diazepan-1-yl)methyl)benzyl)-4-(4-methylpiperazin-1-yl)aniline] | – | < 60000 | < 200 | – | –
CCN(CC)C(=O)c1ccc(-c2ccc(CN3CCCN(C)CC3)cc2C#N)cc1 [Example 27, 2′-cyano-N,N-diethyl-4′-((4-methyl-1,4-diazepan-1-yl)methyl)-[1,1′-biphenyl]-4-carboxamide] | < 200 | < 200 | – | – | –
COc1ccc(-c2ccc(CN3CCCN(C)CC3)cc2)cc1 [Example 128, 1-((4′-methoxy-[1,1′-biphenyl]-4-yl)methyl)-4-methyl-1,4-diazepane] | – | – | – | < 200 | < 60000
CN1CCCN(Cc2ccc(-c3ccc(CN4CCC(CO)C4)cc3)c(C#N)c2)CC1 (centres unmarked) [Example 5, 4′-((3-(hydroxymethyl)pyrrolidin-1-yl)methyl)-4-((4-methyl-1,4-diazepan-1-yl)methyl)-[1,1′-biphenyl]-2-carbonitrile] | < 200 | < 200 | – | – | –
CN1CCCN(Cc2ccc(-c3ccccc3)c(F)c2)CC1 [Example 134, 1-((2-fluoro-[1,1′-biphenyl]-4-yl)methyl)-4-methyl-1,4-diazepane] | – | < 60000 | < 200 | – | –
CNC(=O)c1ccc(-c2ccc(CN3CCCN(C)CC3)cc2C#N)cc1 [Example 29, 2′-cyano-N-methyl-4′-((4-methyl-1,4-diazepan-yl)methyl)-[1,1′-biphenyl]-4-carboxamide] | < 200 | < 200 | – | – | –
CN1CCCN(Cc2ccc(-c3ccc(S(=O)(=O)N4CCN(C)CC4)cc3)c(C#N)c2)CC1 [Example 84, 4-((4-methyl-1,4-diazepan-1-yl)methyl)-4′-((4-methylpiperazin-1-yl)sulfonyl)-[1,1′-biphenyl]-2-carbonitrile] | < 100 | < 100 | – | – | –
CN1CCCN(Cc2ccc(-c3ccc(S(=O)(=O)N4CCOCC4)cc3)c(C#N)c2)CC1 [Example 88, 4-((4-methyl-1,4-diazepan-1-yl)methyl)-4′-(morpholinosulfonyl)-[1,1′-biphenyl]-2-carbonitrile] | < 200 | < 200 | – | – | –
CN1CCCN(Cc2ccc(-c3ccc(CN4CCN(CCO)CC4)cc3)c(C#N)c2)CC1 [Example 6, 4′-((4-(2-hydroxyethyl)piperazin-1-yl)methyl)-4-((4-methyl-1,4-diazepan-1-yl)methyl)-[1,1′-biphenyl]-2-carbonitrile] | < 200 | < 100 | – | – | –
CN1CCCN(Cc2ccc(-c3ccc(C(=O)N4CCCN(C)CC4)cc3-c3ccncc3)c(C#N)c2)CC1 [Example 72, 4-((4-methyl-1,4-diazepan-1-yl)methyl)-4′-(4-methyl-1,4-diazepane-1-carbonyl)-2′-(pyridin-4-yl)-[1,1′-biphenyl]-2-carbonitrile] | < 200 | < 200 | – | – | –
CN1CCCN(Cc2ccc(-c3ccc(C(=O)N4CCCN(C)CC4)cc3-c3cn[nH]c3)c(C#N)c2)CC1 [Example 71, 4-((4-methyl-1,4-diazepan-1-yl)methyl)-4′-(4-methyl-1,4-diazepane-1-carbonyl)-2′-(1H-pyrazol-4-yl)-[1,1′-biphenyl]-2-carbonitrile] | < 100 | < 100 | – | – | –
CN1CCCN(Cc2ccc(-c3ccc(CN4CCCC(O)C4)cc3)c(C#N)c2)CC1 (centres unmarked) [Example 1, 4′-((3-hydroxypiperidin-1-yl)methyl)-4-((4-methyl-1,4-diazepan-1-yl)methyl)-[1,1′-biphenyl]-2-carbonitrile] | < 100 | < 100 | – | – | –
CN1CCCN(Cc2ccc(-c3ccc(CN)cc3)c(C#N)c2)CC1 [Example 16, 4′-(aminomethyl)-4-((4-methyl-1,4-diazepan-1-yl)methyl)-[1,1′-biphenyl]-2-carbonitrile] | < 200 | < 200 | – | – | –
CN1CCCN(Cc2ccc(-c3ccc(N4CCN(C)CC4)cc3)cc2)CC1 [Example 138, 1-methyl-4-((4′-(4-methylpiperazin-1-yl)-[1,1′-biphenyl]-411)methyl)-1,4-diazepane] | – | – | – | < 200 | < 60000
CN1CCCN(Cc2ccc(-c3ccc(NC(N)=O)cc3)c(C#N)c2)CC1 [Example 90, 1-(2′-cyano-4′-((4-methyl-1,4-diazepan-1-yl)methyl)-[1,1′-biphenyl]-4-yl)urea] | < 200 | < 200 | – | – | –
CN1CCCN(Cc2ccc(-c3ccc(C(=O)NN)cc3)c(C#N)c2)CC1 [Example 91, 2′-cyano-4′-((4-methyl-1,4-diazepan-1-yl)methyl)-[1,1′-biphenyl]-4-carbohydrazide] | < 200 | < 200 | – | – | –
CN1CCCN(Cc2ccc(-c3ccc(CN4CCC(O)C4)cc3)c(C#N)c2)CC1 (centres unmarked) [Example 2, 4′-((3-hydroxypyrrolidin-1-yl)methyl)-4-((4-methyl-1,4-diazepan-1-yl)methyl)-[1,1′-biphenyl]-2-carbonitrile] | < 100 | < 50 | – | – | –
CN1CCCN(Cc2ccc(-c3ccncc3)cc2)CC1 [Example 140, 1-methyl-4-(4-(pyridin-4-yl)benzyl)-1,4-diazepane] | – | < 60000 | < 200 | – | –
CN1CCCN(Cc2ccc(-c3ccc(S(=O)(=O)NCCO)cc3)c(C#N)c2)CC1 [Example 85, 2′-cyano-N-(2-hydroxyethyl)-4′-((4-methyl-1,4-diazepan-1-yl)methyl)-[1,1′-biphenyl]-4-sulfonamide] | < 100 | < 100 | – | – | –
CN1CCCN(Cc2ccc(-c3ccc(CNS(C)(=O)=O)cc3)c(C#N)c2)CC1 [Example 48, N-((2′-cyano-4′-((4-methyl-1,4-diazepan-1-yl)methyl)-[1,1′-biphenyl]-4-yl)methyl)methanesulfonamide] | < 100 | < 50 | – | – | –
CN1CCCN(Cc2ccc(-c3ccc(CC#N)cc3)c(C#N)c2)CC1 [Example 93, 4′-(cyanomethyl)-4-((4-methyl-1,4-diazepan-1-yl)methyl)-[1,1′-biphenyl]-2-carbonitrile] | < 200 | < 60000 | – | – | –
